These results are taken from ChEMBL document CHEMBL4265892, “New series of 3,5-disubstituted tetrahydro-2H-1,3,5-thiadiazine thione (THTT) derivatives: Synthesis and potent antileishmanial activity” (Bioorg Med Chem Lett, 2018).

The test system of data set [1] is Leishmania major. Kind of data set: Antileishmanial activity against Leishmania major promastigotes after 72 hrs by Neubauer chamber based cell counting method. It is filed as functional, organism-based.
Data set [2] in a line: Cytotoxicity against […] 3T3 cells assessed as inhibition of cell viability at 50 uM after 48 hrs by MTT assay. The data set is classed as cell-based. Conditions: read-out: INH; call rule not given here. Background: Tetrazolium dyes change colour on reduction, which living cells bring about.
Data set [3] in a line: Cytotoxicity against […] 3T3 cells after 48 hrs by MTT assay. It is filed as cell-based.

Molecules are shown by their SMILES.

One may read the IC50 as the point on the concentration scale where inhibition reaches its midpoint.

Compound `CCN1CSC(=S)N(CC)C1` returned an IC50 in data set [1] of 38.4 µM.

In turn, `CC(C)N1CN(CC(=O)O)CSC1=S` came in with an IC50 in data set [1] of 137 µM. For the compound `CCCCN1CSC(=S)N(CC(=O)O)C1`, the half-maximal inhibitory concentration (IC50) in data set [1] worked out at 36.6 µM. Still for that read-out and setting: then `CCCN1CN(CC(=O)OCC)CSC1=S`, with 107 µM; and `CC(c1ccccc1)N1CN(CCO)CSC1=S` (stereo not given), with 32.2 µM; and `CCCN1CSC(=S)N(CC(=O)O)C1`, with 69.6 µM.

Turning to `CC(C)N1CSC(=S)N(C(C)c2ccccc2)C1` (stereo not given), in data set [1], the half-inhibitory concentration (IC50) turned out to be 21.4 µM. On the same count and under the same terms, as for `CCCCN1CN(CC(=O)O)CSC1=S`, the figure is 24.6 µM. Consider `CCN1CN(CC(=O)O)CSC1=S`, for which, in data set [1], the IC50 is 33.1 µM. Consider `CCN1CSC(=S)N(C(C)c2ccccc2)C1` (stereo not given), for which, in data set [1], 46.2 µM corresponded to half-maximal inhibition (IC50).

`CC(c1ccccc1)N1CN(CC(=O)O)CSC1=S` (stereo not given): half-maximal inhibition in data set [1] (IC50) was put at 30.7 µM.

Turning to `CCCCN1CSC(=S)N(C(C)c2ccccc2)C1` (stereo not given), the IC50 in data set [1] was found to be 21.4 µM.

With `CCCN1CN(CC(=O)O)CSC1=S`, the half-inhibitory concentration (IC50) in data set [1] is 39.3 µM; in data set [3] (NIH3T3, 48 h, read-out: IC50) it was 38.1 µM. In addition, the cytotoxicity at 48 h, 50 µM in data set [2] stood at 56.6%. As for `CCCN1CN(CC(=O)OCc2ccccc2)CSC1=S`, in data set [1], the IC50 was 93.1 µM. Same read-out and setting: then `O=C(O)CN1CN(CCO)CSC1=S`, with 39.4 µM; and `CCCN1CSC(=S)N(C(C)c2ccccc2)C1` (stereo not given), with 24.2 µM. On to `COc1ccc(CN2CN(CC(=O)O)CSC2=S)cc1OC`, for which the 50% inhibitory concentration (IC50) was 15.5 µM in data set [1] and 22.7 µM in data set [3] (NIH3T3, 48 h, read-out: IC50). For the same compound, the cytotoxicity at 48 h, 50 µM in data set [2] was 86.8%. For `CCCCN1CN(CC(=O)OCC)CSC1=S`, in data set [1], the IC50 came out at 36.5 µM. `CCCN1CN(CC(=O)OC)CSC1=S`: the IC50 is 203 µM in data set [1] and “Not Active” in data set [3]. In addition, the cytotoxicity at 48 h, 50 µM in data set [2] is 36.9%. Compound `CCN1CSC(=S)N(CC(=O)O)C1` came in with an IC50 in data set [1] of 45.8 µM. Turning to `C[C@@H]1[C@H](O)[C@@H](C)/C=C/C=C/C=C/C=C/C=C/C=C/C=C/[C@H](O[C@@H]2O[C@H](C)[C@@H](O)[C@H](N)[C@@H]2O)C[C@@H]2O[C@](O)(C[C@@H](O)C[C@@H](O)[C@H](O)CC[C@@H](O)C[C@@H](O)CC(=O)O[C@H]1C)C[C@H](O)[C@H]2C(=O)O` [AMPHOTERICIN B], the IC50 in data set [1] turned out to be 0.31 µM. As to `C[C@@H]1C[C@@H]([C@H](O)CC2CC(=O)NC(=O)C2)C(=O)[C@@H](C)C1` [CYCLOHEXIMIDE], the cytotoxicity at 48 h, 50 µM in data set [2] came to 66%. Also, the concentration for half-maximal inhibition (IC50) in data set [3] (NIH3T3, 48 h, read-out: IC50) was 0.61 µM. The compound `N=C(N)c1ccc(OCCCCCOc2ccc(C(=N)N)cc2)cc1` [PENTAMIDINE] registered an IC50 in data set [1] of 15 µM.
